Reference: patent publication US6737383B1, “Herbicidal oxadiazolidines” (priority 1999, dated 2004)

Legend:
bedstraw = experiment: Test B pre/postemergence bedstraw; type: in vivo, Galium aparine
Outline: (§1)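 Herbicidal effect was estimated by eye on a ten-point control scale after plants spent twelve to sixteen days in a greenhouse following soil or foliar treatment. Foliar sprays targeted plants at one to four leaves; all doses were formulated in a non-phytotoxic solvent with surfactant.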

blackgrass = experiment: Test B pre/postemergence blackgrass; type: in vivo, Alopecurus myosuroides
Outline: as §1

surinam grass = experiment: Test B pre/postemergence surinam grass; type: in vivo, Brachiaria decumbens
Outline: as §1

cocklebur = experiment: Test B pre/postemergence cocklebur; type: in vivo, Xanthium strumarium
Outline: as §1

corn = experiment: Test B pre/postemergence corn; type: in vivo, Zea mays
Outline: as §1

crabgrass = experiment: Test B pre/postemergence crabgrass; type: in vivo, Digitaria sanguinalis
Outline: as §1

giant foxtail = experiment: Test B pre/postemergence giant foxtail; type: in vivo, Setaria faberii
Outline: as §1

morningglory = experiment: Test B pre/postemergence morningglory; type: in vivo, Ipomoea hederacea
Outline: as §1

rape = experiment: Test B pre/postemergence rape; type: in vivo, Brassica napus
Outline: as §1

soybean = experiment: Test B pre/postemergence soybean; type: in vivo, Glycine max
Outline: as §1

velvetleaf = experiment: Test B pre/postemergence velvetleaf; type: in vivo, Abutilon theophrasti
Outline: as §1

wheat = experiment: Test B pre/postemergence wheat; type: in vivo, Triticum aestivum
Outline: as §1

wild oat = experiment: Test B pre/postemergence wild oat; type: in vivo, Avena fatua
Outline: as §1

smallflower flatsedge = experiment: Test B flood test smallflower flatsedge; type: in vivo, Cyperus difformis
Outline: (§2)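 Each value is a visual injury score relative to controls, with 10 meaning complete control and 0 no effect. Evaluation took place twelve to sixteen days after the 2-leaf-stage plants were treated and kept in the greenhouse.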

duck salad = experiment: Test B flood test duck salad; type: in vivo, Heteranthera limosa
Outline: as §2

bamyardgrass = experiment: Test B flood test barnyardgrass; type: in vivo, Echinochloa crus-galli
Outline: as §2

[1] = Preemergence, Rate 62 g/ha, scale of 0 to 10 where 0 is no effect and 10 is complete control
[2] = Preemergence, Rate 250 g/ha, scale 0 to 10, 0 is no effect, 10 is complete control
[3] = Preemergence, Rate 500 g/ha, scale 0 to 10 (0 no effect, 10 complete control)
[4] = Rate 62 g/ha, Postemergence, scale of 0 to 10 where 0 is no effect and 10 is complete control
[5] = Rate 125 g/ha, Postemergence, scale 0 to 10
[6] = Rate 500 g/ha, Postemergence, scale 0 to 10
[7] = Preemergence, Rate 125 g/ha, 0 is no effect, 10 is complete control
[8] = Rate 62 g/ha, headed Pre-emergence (flood test species), scale 0 to 10 (0 no effect, 10 complete control)
[9] = Rate 125 g/ha, Pre-emergence, flood test species, scale 0 to 10 where 0 is no effect and 10 is complete control
[10] = Rate 250 g/ha, Pre-emergence, flood-test species, scale 0 to 10, 0 is no effect, 10 is complete control
[11] = Rate 500 g/ha, headed Pre-emergence (flood test species), scale 0 to 10 (0 no effect, 10 complete control)

CCN(C(=O)n1oc(=O)n(C(C)C)c1=O)c1nncs1 [Compound 190]
Bedstraw plant response rating (bedstraw; [1]): 0
Bedstraw plant response rating (bedstraw; [2]): 0
Bedstraw plant response rating (bedstraw; [3]): 4
Bedstraw plant response rating (bedstraw; [4]): 0
Bedstraw plant response rating (bedstraw; [5]): 0
Plant response rating (0 to 10; 0 is no effect, 10 is complete control), Bedstraw (bedstraw; Rate 250 g/ha, Postemergence): 0
Bedstraw plant response rating (bedstraw; [6]): 0
Blackgrass plant response rating (blackgrass; [1]): 0
Blackgrass plant response rating (0 to 10 scale) (blackgrass; [7]): 0
Blackgrass plant response rating (blackgrass; [2]): 0
Blackgrass plant response rating (blackgrass; [3]): 3
Blackgrass plant response rating (blackgrass; [4]): 0
Blackgrass plant response rating (blackgrass; [5]): 0
Plant response rating (0 to 10; 0 is no effect, 10 is complete control), Blackgrass (blackgrass; Rate 250 g/ha, Postemergence): 0
Blackgrass plant response rating (blackgrass; [6]): 0
B. signalgrass plant response rating (surinam grass; [1]): 0
B. signalgrass plant response rating (0 to 10 scale) (surinam grass; [7]): 0
B. signalgrass plant response rating (surinam grass; [2]): 0
B. signalgrass plant response rating (surinam grass; [3]): 0
B. signalgrass plant response rating (surinam grass; [4]): 0
B. signalgrass plant response rating (surinam grass; Rate 125 g/ha, Postemergence, scale 0 (no effect) to 10 (complete control)): 0
Plant response rating, B. signalgrass (surinam grass; Rate 250 g/ha, Postemergence, scale 0 to 10, 0 is no effect, 10 is complete control): 0
B. signalgrass plant response rating (surinam grass; Rate 500 g/ha, Postemergence, scale 0 to 10, 0 no effect, 10 complete control): 0
Cocklebur plant response rating (cocklebur; [1]): 0
Cocklebur plant response rating (0 to 10 scale) (cocklebur; [7]): 0
Cocklebur plant response rating (cocklebur; [2]): 0
Cocklebur plant response rating (cocklebur; [3]): 0
Cocklebur plant response rating (cocklebur; [4]): 0
Cocklebur plant response rating (cocklebur; [5]): 0
Plant response rating (0 to 10; 0 is no effect, 10 is complete control), Cocklebur (cocklebur; Rate 250 g/ha, Postemergence): 0
Cocklebur plant response rating (cocklebur; [6]): 0
Corn plant response rating (corn; [1]): 0
Corn plant response rating (0 to 10 scale) (corn; [7]): 0
Corn plant response rating (corn; [2]): 0
Corn plant response rating (corn; [3]): 0
Corn plant response rating (corn; [4]): 0
Corn plant response rating (corn; [5]): 0
Plant response rating (0 to 10; 0 is no effect, 10 is complete control), Corn (corn; Rate 250 g/ha, Postemergence): 0
Corn plant response rating (corn; [6]): 0
Crabgrass plant response rating (crabgrass; [1]): 0
Crabgrass plant response rating (0 to 10 scale) (crabgrass; [7]): 0
Crabgrass plant response rating (crabgrass; [2]): 0
Crabgrass plant response rating (crabgrass; [3]): 0
Crabgrass plant response rating (crabgrass; [4]): 0
Crabgrass plant response rating (crabgrass; [5]): 0
Plant response rating (0 to 10; 0 is no effect, 10 is complete control), Crabgrass (crabgrass; Rate 250 g/ha, Postemergence): 0
Crabgrass plant response rating (crabgrass; [6]): 0
Giant foxtail plant response rating (giant foxtail; [1]): 0
Giant foxtail plant response rating (0 to 10 scale) (giant foxtail; [7]): 0
Giant foxtail plant response rating (giant foxtail; [2]): 0
Giant foxtail plant response rating (giant foxtail; [3]): 0
Giant foxtail plant response rating (giant foxtail; [4]): 0
Giant foxtail plant response rating (giant foxtail; [5]): 0
Plant response rating (0 to 10; 0 is no effect, 10 is complete control), Giant foxtail (giant foxtail; Rate 250 g/ha, Postemergence): 0
Giant foxtail plant response rating (giant foxtail; [6]): 0
Morningglory plant response rating (morningglory; [1]): 0
Morningglory plant response rating (0 to 10 scale) (morningglory; [7]): 0
Morningglory plant response rating (morningglory; [2]): 0
Morningglory plant response rating (morningglory; [3]): 0
Morningglory plant response rating (morningglory; [4]): 0
Morningglory plant response rating (morningglory; [5]): 0
Plant response rating (0 to 10; 0 is no effect, 10 is complete control), Morningglory (morningglory; Rate 250 g/ha, Postemergence): 0
Morningglory plant response rating (morningglory; [6]): 0
Rape plant response rating (rape; [1]): 0
Rape plant response rating (0 to 10 scale) (rape; [7]): 0
Rape plant response rating (rape; [2]): 0
Rape plant response rating (rape; [3]): 0
Rape plant response rating (rape; [4]): 0
Rape plant response rating (rape; [5]): 0
Plant response rating (0 to 10; 0 is no effect, 10 is complete control), Rape (rape; Rate 250 g/ha, Postemergence): 0
Rape plant response rating (rape; [6]): 0
Soybean plant response rating (soybean; [1]): 0
Soybean plant response rating (0 to 10 scale) (soybean; [7]): 0
Soybean plant response rating (soybean; [2]): 0
Soybean plant response rating (soybean; [3]): 0
Soybean plant response rating (soybean; [4]): 0
Soybean plant response rating (soybean; [5]): 0
Plant response rating (0 to 10; 0 is no effect, 10 is complete control), Soybean (soybean; Rate 250 g/ha, Postemergence): 0
Soybean plant response rating (soybean; [6]): 0
Velvetleaf plant response rating (velvetleaf; [1]): 0
Velvetleaf plant response rating (velvetleaf; [2]): 0
Velvetleaf plant response rating (velvetleaf; [3]): 0
Velvetleaf plant response rating (velvetleaf; [4]): 0
Velvetleaf plant response rating (velvetleaf; [5]): 0
Plant response rating (0 to 10; 0 is no effect, 10 is complete control), Velvetleaf (velvetleaf; Rate 250 g/ha, Postemergence): 0
Wheat plant response rating (wheat; [1]): 0
Wheat plant response rating (wheat; [2]): 0
Wheat plant response rating (wheat; [3]): 0
Wheat plant response rating (wheat; [4]): 0
Wheat plant response rating (wheat; [5]): 0
Plant response rating (0 to 10; 0 is no effect, 10 is complete control), Wheat (wheat; Rate 250 g/ha, Postemergence): 0
Wild oats plant response rating (wild oat; [1]): 0
Wild oats plant response rating (wild oat; [2]): 0
Wild oats plant response rating (wild oat; [3]): 0
Wild oats plant response rating (wild oat; [4]): 0
Wild oats plant response rating (wild oat; [5]): 0
Plant response rating (0 to 10; 0 is no effect, 10 is complete control), Wild oats (wild oat; Rate 250 g/ha, Postemergence): 0
S. Flatsedge plant response rating (smallflower flatsedge; [8]): 0
S. Flatsedge plant response rating (smallflower flatsedge; [9]): 0
S. Flatsedge plant response rating (smallflower flatsedge; [10]): 0
S. Flatsedge plant response rating (smallflower flatsedge; Rate 500 g/ha, Pre-emergence, flood test species, scale 0 to 10 (0 no effect, 10 complete control)): 0
Ducksalad plant response rating (duck salad; [8]): 0
Ducksalad plant response rating (duck salad; [9]): 0
Ducksalad plant response rating (duck salad; [10]): 0
Plant response rating, Ducksalad (duck salad; [11]): 0
Barnyardgrass plant response rating (bamyardgrass; [8]): 0
Barnyardgrass plant response rating (bamyardgrass; [9]): 0
Barnyardgrass plant response rating (bamyardgrass; [10]): 0
Plant response rating, Barnyardgrass (bamyardgrass; [11]): 0
